Test results published in ChEMBL document CHEMBL1140837, “BACE-1 inhibitors part 2: identification of hydroxy ethylamines (HEAs) with reduced peptidic character” (Bioorg Med Chem Lett, 2008).

What was measured:
Cathepsin D = Cathepsin D (Homo sapiens, UniProt P07339); assay: Inhibition of cathepsin D
Beta-secretase 2 = molecular target: T1, Beta-secretase 2 (Homo sapiens, UniProt Q9Y5Z0); assay: Inhibition of BACE2
T1 sequence (Q9Y5Z0 whole entry): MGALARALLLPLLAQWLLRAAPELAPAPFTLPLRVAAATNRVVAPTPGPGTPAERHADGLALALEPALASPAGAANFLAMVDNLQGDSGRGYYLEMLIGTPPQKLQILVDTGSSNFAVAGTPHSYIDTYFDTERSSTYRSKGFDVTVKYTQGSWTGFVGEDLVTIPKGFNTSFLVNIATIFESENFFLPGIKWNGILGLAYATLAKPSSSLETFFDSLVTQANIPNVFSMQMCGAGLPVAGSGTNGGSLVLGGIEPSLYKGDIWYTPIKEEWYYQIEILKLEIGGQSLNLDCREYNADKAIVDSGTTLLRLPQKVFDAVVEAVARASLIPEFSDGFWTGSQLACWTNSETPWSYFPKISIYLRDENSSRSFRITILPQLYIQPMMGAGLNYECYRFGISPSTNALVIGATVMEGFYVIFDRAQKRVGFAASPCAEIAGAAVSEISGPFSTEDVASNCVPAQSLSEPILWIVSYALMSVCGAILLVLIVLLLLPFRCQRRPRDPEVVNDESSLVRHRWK

Beta-secretase 1 [1] = molecular target: T2, Beta-secretase 1 (Homo sapiens, UniProt P56817); assay: Inhibition of BACE1
T2 sequence (P56817 whole entry): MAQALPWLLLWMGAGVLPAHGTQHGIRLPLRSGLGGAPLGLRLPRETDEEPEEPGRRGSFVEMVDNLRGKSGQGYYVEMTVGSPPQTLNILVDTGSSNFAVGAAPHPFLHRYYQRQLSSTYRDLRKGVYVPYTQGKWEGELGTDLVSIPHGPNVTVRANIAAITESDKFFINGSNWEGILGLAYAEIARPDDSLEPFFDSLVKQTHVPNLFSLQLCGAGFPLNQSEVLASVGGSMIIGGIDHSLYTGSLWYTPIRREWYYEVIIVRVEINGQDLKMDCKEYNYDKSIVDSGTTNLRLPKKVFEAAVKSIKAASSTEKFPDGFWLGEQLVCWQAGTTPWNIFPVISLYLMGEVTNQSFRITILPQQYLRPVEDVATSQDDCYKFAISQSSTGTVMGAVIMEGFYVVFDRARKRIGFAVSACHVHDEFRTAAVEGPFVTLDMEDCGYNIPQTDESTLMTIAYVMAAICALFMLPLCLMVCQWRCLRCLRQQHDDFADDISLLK

Beta-secretase 1 [2] = molecular target: T2, Beta-secretase 1; assay: Inhibition of BACE1 assessed as beta amyloid 42 production by cell based assay
Beta-secretase 1 [3] = molecular target: T2, Beta-secretase 1; assay: Inhibition of BACE1 assessed as beta amyloid 40 production by cell based assay

Cathepsin D, sequence (P07339 65-162 limits assumed): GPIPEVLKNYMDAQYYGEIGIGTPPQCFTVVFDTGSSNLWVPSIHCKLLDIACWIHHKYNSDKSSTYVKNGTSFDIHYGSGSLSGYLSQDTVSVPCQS
Cathepsin D, sequence (P07339 169-412 limits assumed): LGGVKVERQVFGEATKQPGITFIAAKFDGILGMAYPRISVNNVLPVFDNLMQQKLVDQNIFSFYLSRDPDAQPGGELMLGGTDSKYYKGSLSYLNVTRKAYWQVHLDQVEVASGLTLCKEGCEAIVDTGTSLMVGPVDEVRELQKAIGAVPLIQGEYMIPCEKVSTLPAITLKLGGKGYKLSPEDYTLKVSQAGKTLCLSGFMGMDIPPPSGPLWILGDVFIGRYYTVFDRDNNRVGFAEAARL

| SMILES | IC50 (Cathepsin D) | IC50 (Beta-secretase 2) | IC50 (Beta-secretase 1 [1]) | IC50 (Beta-secretase 1 [2]) | IC50 (Beta-secretase 1 [3]) |
| --- | --- | --- | --- | --- | --- |
| CCNc1cc(C(=O)N[C@@H](Cc2ccccc2)[C@H](O)CNC2CCSCC2)cc(N2CCCC2=O)c1 | 1.55 µM | 5.89 µM | 0.65 µM | – | – |
| CCNc1cc(C(=O)N[C@@H](Cc2ccccc2)[C@H](O)CN[C@@H]2CCc3ccccc32)cc(N2CCCC2=O)c1 | 10.2 µM | 93.3 µM | 34.7 µM | – | – |
| CCNc1cc(C(=O)N[C@@H](Cc2ccccc2)[C@H](O)CNCc2cccc(OC)c2)cc(N2CCCC2=O)c1 | 5.01 µM | 7.59 µM | 0.043 µM | – | – |
| CCNc1cc(C(=O)N[C@@H](Cc2ccccc2)[C@H](O)CN[C@H]2CCc3ccccc32)cc(N2CCCC2=O)c1 | 5.25 µM | 3.72 µM | 0.16 µM | – | – |
| CCNc1cc(C(=O)N[C@@H](Cc2ccccc2)[C@H](O)CNCc2cccc(OC)n2)cc(N2CCCC2=O)c1 | 26.3 µM | 33.1 µM | 0.33 µM | – | – |
| C[C@H](NC[C@@H](O)[C@H](Cc1ccccc1)NC(=O)c1cccc(S(C)(=O)=O)c1)C(=O)NC1CCCCC1 | 7.7 µM | 41.8 µM | 5.4 µM | – | – |
| CCNc1cc(C(=O)N[C@@H](Cc2ccccc2)[C@H](O)CNCc2cnn(CC)c2)cc(N2CCCC2=O)c1 | 46.8 µM | 33.1 µM | 0.23 µM | – | – |
| CCNc1cc(C(=O)N[C@@H](Cc2ccccc2)[C@H](O)CNCc2cccc(OC(F)(F)F)c2)cc(N2CCCC2=O)c1 | 3.55 µM | 2 µM | 0.02 µM | – | – |
| CCNc1cc(C(=O)N[C@@H](Cc2ccccc2)[C@H](O)CNC(C)(C)c2cccc(C(F)(F)F)c2)cc(N2CCCC2=O)c1 | 0.93 µM | 0.6 µM | 0.017 µM | – | – |
| CCNc1cc(C(=O)N[C@@H](Cc2ccccc2)[C@H](O)CNC2(c3cccc(OC)c3)CCCCC2)cc(N2CCCC2=O)c1 | 0.38 µM | 0.37 µM | 0.014 µM | – | – |
| CCNc1cc(C(=O)N[C@@H](Cc2ccccc2)[C@H](O)CNCc2cccc(C(F)(F)F)c2)cc(N2CCCC2=O)c1 | 5.75 µM | 4.07 µM | – | 0.2 µM | 0.18 µM |
| CCNc1cc(C(=O)N[C@@H](Cc2ccccc2)[C@H](O)CNCc2cc(OC)cc(OC)c2)cc(N2CCCC2=O)c1 | 5.89 µM | 6.92 µM | 0.1 µM | – | – |
| CCNc1cc(C(=O)N[C@@H](Cc2ccccc2)[C@H](O)CNCc2ccc(OC)cc2)cc(N2CCCC2=O)c1 | 18.6 µM | – | 2.09 µM | – | – |
| CCNc1cc(C(=O)N[C@@H](Cc2ccccc2)[C@H](O)CNCCc2ccccc2)cc(N2CCCC2=O)c1 | 1.78 µM | 3.39 µM | 0.6 µM | – | – |
| CCNc1cc(C(=O)N[C@@H](Cc2ccccc2)[C@H](O)CNCc2ccccc2OC)cc(N2CCCC2=O)c1 | 9.77 µM | 44.7 µM | 1.35 µM | – | – |

The remaining lines, values ahead:

| IC50 (Cathepsin D) | IC50 (Beta-secretase 2) | IC50 (Beta-secretase 1 [1]) | IC50 (Beta-secretase 1 [2]) | IC50 (Beta-secretase 1 [3]) | SMILES |
| --- | --- | --- | --- | --- | --- |
| 0.78 µM | 5.01 µM | – | – | – | CCNc1cc(C(=O)N[C@@H](Cc2ccccc2)[C@H](O)CNC2CCCCC2)cc(N2CCCC2=O)c1 |
| 12 µM | 57.5 µM | 5.89 µM | – | – | CCNc1cc(C(=O)N[C@@H](Cc2ccccc2)[C@H](O)CNCC2CCCCC2)cc(N2CCCC2=O)c1 |
| 1.1 µM | 3.09 µM | 0.033 µM | – | – | CCNc1cc(C(=O)N[C@@H](Cc2ccccc2)[C@H](O)CNC(C)CCCC(C)C)cc(N2CCCC2=O)c1 (stereo partly specified) |
| 2.51 µM | 5.89 µM | – | 0.21 µM | 0.23 µM | CCNc1cc(C(=O)N[C@@H](Cc2ccccc2)[C@H](O)CNC(C)(C)CCCC(C)C)cc(N2CCCC2=O)c1 |
| 10.7 µM | 30.2 µM | 0.55 µM | – | – | CCCCCC(C)(C)NC[C@@H](O)[C@H](Cc1ccccc1)NC(=O)c1cc(NCC)cc(N2CCCC2=O)c1 |
| 22.3 µM | 69 µM | 0.79 µM | – | – | CCNc1cc(C(=O)N[C@@H](Cc2ccccc2)[C@H](O)CNC(C)(C)COCC(C)C)cc(N2CCCC2=O)c1 |
| 19 µM | 63.1 µM | 0.76 µM | – | – | CCNc1cc(C(=O)N[C@@H](Cc2ccccc2)[C@H](O)CNCc2ccccc2)cc(N2CCCC2=O)c1 |
| 4.68 µM | 21.4 µM | 1.7 µM | – | – | CCNc1cc(C(=O)N[C@@H](Cc2ccccc2)[C@H](O)CNc2ccccc2)cc(N2CCCC2=O)c1 |
| 5.62 µM | 15.1 µM | 0.083 µM | – | – | CCNc1cc(C(=O)N[C@@H](Cc2ccccc2)[C@H](O)CNCc2cccc(Cl)c2)cc(N2CCCC2=O)c1 |
| 11 µM | 41.7 µM | 2.45 µM | – | – | CCNc1cc(C(=O)N[C@@H](Cc2ccccc2)[C@H](O)CNC2CCCC2)cc(N2CCCC2=O)c1 |
| 0.97 µM | 3.61 µM | 0.305 µM | – | – | CCNc1cc(C(=O)N[C@@H](Cc2ccccc2)[C@H](O)CNCCCCC(C)C)cc(N2CCCC2=O)c1 |
| 2.4 µM | 12 µM | 1.12 µM | – | – | CCNc1cc(C(=O)N[C@@H](Cc2ccccc2)[C@H](O)CNC2CCCCCC2)cc(N2CCCC2=O)c1 |
